The values below come from BindingDB's records for doi:10.1021/jm010841w (University of Bristol, 2002).

Assay [1] can be described thus: Maximum % effect of standard (DAMGO) was reported against Opioid receptor mu 1.
Assay [2] can be described thus: Maximum percentage effect of standard Opioid receptor delta 1 (Cl-DPDPE).

By EC50 is commonly meant the concentration giving half of the maximal effect. A lower EC50 goes with greater potency. In assay [1], `Cc1ccc(-c2cn(Cc3ccccc3)c3c2C[C@@]2(O)C4Cc5ccc(O)c6c5[C@@]2(CCN4CC2CC2)[C@H]3O6)cc1` [7-benzyl-18-cyclopropylmethyl-5-(4-methylphenyl)-10-oxa-7,18-diazahexacyclo[9.9.1.01,9.02,17.04,8.015,21]henicosa-4(8),5,11,13,15(21)-pentaene-2,12-diol] returned a half-maximal effective concentration (EC50) of 34 nM.
`CN1CC[C@]23c4c5ccc(O)c4O[C@H]2c2c(c(-c4ccccc4)cn2Cc2ccccc2)C[C@@]3(O)C1C5` [7-benzyl-18-methyl-5-phenyl-10-oxa-7,18-diazahexacyclo[9.9.1.01,9.02,17.04,8.015,21]henicosa-4(8),5,11,13,15(21)-pentaene-2,12-diol] registered an EC50 in assay [2] of 41 nM.
